Test results: patent US20190029252A1, “Use of Herbicide-tolerant Protein” (BEIJING DABEINONG TECHNOLOGY GROUP CO., LTD., priority 2016, published 2019)

Columns and labels:
Type in all cases: in vivo
[1] = system: wild-type Arabidopsis thaliana plants; assay: Herbicide tolerance of Arabidopsis thaliana plants, sprayed, resistance classes counted 14 days after spraying
Text: (§1) T1 transformants were initially selected from the background of untransformed seeds using a glufosinate selection scheme. About 40000 T1 seeds were screened, and 380 T1 positive transformants (PAT gene) were identified with a transformation efficiency of about 0.95%. The plants that were transformed with the recombinant expression vector DBN100632 were Arabidopsis thaliana plants having an ALT-1-01 nucleotide sequence located in the cytoplasm introduced (At cytoplasmic ALT-1-01), and the plants that were transformed with the recombinant expression vector DBN100631 were Arabidopsis thaliana plants having an ALT-1-01 nucleotide sequence located in the chloroplast introduced (At chloroplastic ALT-1-01); the plants that were transformed with the recombinant expression vector DBN100634 were Arabidopsis thaliana plants having an ALT-2-01 nucleotide sequence located in the cytoplasm introduced (At cytoplasmic ALT-2-01), and the plants that were transformed with the recombinant expression vector DBN100633 were Arabidopsis thaliana plants having an ALT-2-01 nucleotide sequence located in the chloroplast introduced (At chloroplastic ALT-2-01); and the plants that were transformed with the recombinant expression vector DBN100636 were Arabidopsis thaliana plants having an ALT-3-01 nucleotide sequence located in the cytoplasm introduced (At cytoplasmic ALT-3-01), and the plants that were transformed with the recombinant expression vector DBN100635 were Arabidopsis thaliana plants having an ALT-3-01 nucleotide sequence located in the chloroplast introduced (At chloroplastic ALT-3-01).
(§2) Plants were counted for the resistance situations 14 days after spraying: those having a consistent growth status with the blank solvent (water) group after 14 days were classified as highly resistant plants, those having a bolting height less than ½ of that of the blank solvent (water) group after 14 days were classified as moderately resistant plants, those still not capable of bolting after 14 days were classified as poorly resistant plants, and those dead after 14 days were classified as non-resistant plants. Since each Arabidopsis thaliana T1 plant was an independent transformation event, a significant difference in individual T1 responses could be expected at a given dose.
as §2, with “situation” for “situations”

[2] = system: transgenic maize plants (ALT-1, ALT-2 and ALT-3); assay: Tribenuron-methyl tolerance of transgenic maize plants, overall conclusion; details: 72 g ai/ha
Experimental: (§3) The damage degree caused by the herbicide was measured for each plant according to the plant growth status 3 days after spraying (3 DAT), 7 days after spraying (7 DAT), 14 days after spraying (14 DAT) and 21 days after spraying (21 DAT), respectively: considering a growth status equivalent to that of the untreated plants as having a damage degree of 0%; considering conditions of leaves being partially chlorotic and yellow but substantially not affecting the plant normal growth as having a damage degree of 50%; and considering the whole plant being purple and dying as having a damage degree of 100%. There were 2 strains in Zm cytoplasmic ALT-1-02 maize plants in total (S13 and S14), 2 strains in Zm chloroplastic ALT-1-02 maize plants in total (S15 and S16), 2 strains in Zm cytoplasmic ALT-2-02 maize plants in total (S17 and S18), 2 strains in Zm chloroplastic ALT-2-02 maize plants in total (S19 and S20), 2 strains in Zm cytoplasmic ALT-3-02 maize plants in total (S21 and S22), 2 strains in Zm chloroplastic ALT-3-02 maize plants in total (S23 and S24), and 1 strain in wild-type maize plants (CK2) in total; and 10-15 plants were selected from each strain and tested.

[3] = system: Zm cytoplasmic ALT-3-02 maize plants; assay: Tribenuron-methyl tolerance of maize plants, damage degree after spraying; details: 72 g ai/ha (4-fold field concentration)
Experimental: as §3

[4] = system: Zm chloroplastic ALT-1-02 maize plants; assay: as above; details: 72 g ai/ha (4-fold field concentration)
Experimental: as §3

[5] = system: At chloroplastic ALT-2-01 T1 plants; assay: Herbicide tolerance of Arabidopsis thaliana T1 plants, sprayed, resistance classes counted 14 days after spraying; details: sprayed at 1-fold field concentration
Text: as §1, §2
as §2, with “situation” for “situations”

[6] = system: At chloroplastic ALT-1-01 T1 plants; assay: as above; details: sprayed at 1-fold field concentration
Text: as §1, §2
as §2, with “situation” for “situations”

[7] = system: At cytoplasmic ALT-1-01 T1 plants; assay: as above; details: sprayed at 1-fold field concentration
Text: as §1, §2
as §2, with “situation” for “situations”

[8] = system: At cytoplasmic ALT-2-01 T1 plants; assay: as above; details: sprayed at 1-fold field concentration
Text: as §1, §2
as §2, with “situation” for “situations”

[9] = system: At cytoplasmic ALT-3-01 T1 plants; assay: as above; details: sprayed at 1-fold field concentration
Text: as §1, §2
as §2, with “situation” for “situations”

[10] = system: At chloroplastic ALT-3-01 T1 plants; assay: as above; details: sprayed at 1-fold field concentration
Text: as §1, §2
as §2, with “situation” for “situations”

[11] = system: transformed Arabidopsis thaliana T1 plants (ALT-1, ALT-2 and ALT-3); assay: Herbicide tolerance of transgenic Arabidopsis thaliana T1 plants, overall conclusion; details: transgenic Arabidopsis thaliana T1 plants; 18 g ai/ha
Text: as §2
as §2, with “situation” for “situations”

[12] = wild-type, sprayed at 1-fold field concentration, 14 days after spraying
[13] = maize strain S21 (Zm cytoplasmic ALT-3-02)
[14] = maize strain S22 (Zm cytoplasmic ALT-3-02)
[15] = maize strain S15 (Zm chloroplastic ALT-1-02)
[16] = maize strain S16 (Zm chloroplastic ALT-1-02)

`COC(=O)c1ccccc1S(=O)(=O)NC(=O)N(C)c1nc(C)nc(OC)n1` [tribenuron-methyl, methyl 2-[N-(4-methoxy-6-methyl-1,3,5-triazin-2-yl)-N-methylaminoformamidosulfonyl]benzoate] was tested, and the “herbicide tolerance (in words)” value ([1]; wild-type Arabidopsis thaliana plants, 18 g ai/ha) was “none of the wild-type Arabidopsis thaliana plants was tolerant”, the “Highly resistant (number of plants)” value [1, 12] was 0 and the “Moderately resistant (number of plants)” value [1, 12] was 0. The “Non-resistant (number of plants)” value [1, 12] was 32, the “Poorly resistant (number of plants)” value [1, 12] was 0 and the “herbicide tolerance conferred by thifensulfuron hydrolase (in words)” value [2] was “a high level of tribenuron-methyl herbicide tolerance”. The “Average damage % 3DAT” value [3, 13] was 3%, the “Average damage % 7DAT” value [3, 13] was 0% and the “Average damage % 14DAT” value [3, 13] was 0%. The “Average damage % 21DAT” value [3, 13] was 0%, the “Average damage % 3DAT” value [3, 14] was 5% and the “Average damage % 7DAT” value [3, 14] was 0%. The “Average damage % 14DAT” value [3, 14] was 0%, the “Average damage % 21DAT” value [3, 14] was 0% and the “Average damage % 3DAT” value [4, 15] was 0%. For the same molecule, the “Average damage % 7DAT” value [4, 15] was 0%, the “Average damage % 14DAT” value [4, 15] was 0% and the “Average damage % 21DAT” value [4, 15] was 0%. The “Average damage % 3DAT” value [4, 16] was 0%, the “Average damage % 7DAT” value [4, 16] was 0% and the “Average damage % 14DAT” value [4, 16] was 0%. For the same molecule, the “Average damage % 21DAT” value [4, 16] was 0%, the “Highly resistant (number of plants)” value [5] was 29 and the “Moderately resistant (number of plants)” value [5] was 0. The “Non-resistant (number of plants)” value [5] was 1, the “Poorly resistant (number of plants)” value [5] was 1 and the “Highly resistant (number of plants)” value [6] was 28. The “Moderately resistant (number of plants)” value [6] was 0, the “Non-resistant (number of plants)” value [6] was 2 and the “Poorly resistant (number of plants)” value [6] was 0. For the same molecule, the “Highly resistant (number of plants)” value [7] was 24, the “Moderately resistant (number of plants)” value [7] was 2 and the “Non-resistant (number of plants)” value [7] was 1. For the same molecule, the “Poorly resistant (number of plants)” value [7] was 1, the “Highly resistant (number of plants)” value [8] was 25 and the “Moderately resistant (number of plants)” value [8] was 1. For the same molecule, the “Non-resistant (number of plants)” value [8] was 3, the “Poorly resistant (number of plants)” value [8] was 1 and the “Highly resistant (number of plants)” value [9] was 22. The “Moderately resistant (number of plants)” value [9] was 1, the “Non-resistant (number of plants)” value [9] was 3 and the “Poorly resistant (number of plants)” value [9] was 1. For the same molecule, the “Highly resistant (number of plants)” value [10] was 27, the “Moderately resistant (number of plants)” value [10] was 0 and the “Non-resistant (number of plants)” value [10] was 2. For the same molecule, the “Poorly resistant (number of plants)” value [10] was 0 and the “herbicide tolerance conferred by thifensulfuron hydrolase (in words)” value [11] was “conferred tribenuron-methyl herbicide tolerance”.
